Measurements published in patent US20170252346A1, “PHARMACEUTICAL COMPOSITION FOR THE TREATMENT OF ACUTE TOOTH OR JAW PAIN” (SANOFI-AVENTIS DEUTSCHLAND GMBH, priority 2014, published 2017).

System: patients with post-operative dental pain
Assay: Single-center, randomized, two-stage, parallel-group double-blind clinical study of single-dose efficacy and safety in post-operative dental pain
Assay type: in vivo, human
Details: ibuprofen 400 mg, caffeine 100 mg
Description: Clinical trials are performed in patients using the tablets produced according to example 1 and using the following study design:
Secondary goal: Evaluation of the efficacy and safety of multiple doses of the fixed combination compared with ibuprofen alone over a post-operative time period of 5 days (study stage 2).
Male and female patients between the ages of 18 and 55 years, scheduled for the extraction of 3 to 4 unsound wisdom teeth, with at least 2 extracted molars were recruited; the baseline of dental pain intensity must be at least moderate on a verbal evaluation scale and at least 5 on a numerical evaluation scale ranging from 0 to 10.
Following surgery, one tablet every 6-8 hours for 5 days has been administered.
The time-weighted sum of pain relief (PAR) and the difference in pain intensity (PID) from 0 to 8 hours (SPRID0-8H)
Secondary Endpoint • The time-weighted sum of PAR and PID from 0 to 2 hours (SPRID0-2H) • Duration of pain relief • Time to significant pain relief
The pain intensity (PI) was evaluated in a diary before administration and at 0.25, 0.5, 0.75, 1, 1.5, 2, 3, 4, 5, 6, 7 and 8 hours after the first dose of the study medication using an 11-point numerical rating scale (NPRS) from 0=“no pain” to 10=“worst possible pain”.
The pain relief (PAR) beginning from pain onset was evaluated in a patient diary using a 5-point rating scale (VRS) (0=no pain relief; 1=a little pain relief; 2=some pain relief; 3=much pain relief; 4=complete pain relief) at the same time points as for the PI evaluation.
As soon as a patient needed an emergency medication or a second dose of the medication within less than 8 hours, PI and PAR were evaluated before the emergency medication or second dose was administered.
The time-weighted sum of pain relief (PAR) and the pain intensity difference (PID) relative to baseline between 0 and 8 hours is determined as follows:
PID=PI at baseline−PI at the specific time point (here, higher PID values represent greater benefit for the patient).
Higher values of the SPRID0-8 h likewise indicate greater benefit for the patient.

[1] = Kaplan-Meyer analysis, single dose

Question: Which “Mean time to obtain relief (time to significant/meaningful pain relief)” value [1] does the source give for `CC(C)Cc1ccc(C(C)C(=O)O)cc1` (racemic) [Ibuprofen, (+/−) 2-(p-isobutylphenyl)-propionic acid] here?
Answer: 2.5 h

Question: What about the “Median duration of action” value [1] of the same compound?
Answer: 7.1 h

Question: And the “Adjusted Mean SPRID0-2h value” (time-weighted sum of PAR and PID 0 to 2 hours after single dose)?
Answer: 6.990

Question: And the “Adjusted Mean SPRID0-8h value” (time-weighted sum of pain relief (PAR) and pain intensity difference (PID) 0 to 8 hours after single dose, study stage 1)?
Answer: 40.165
